Calls of active or inactive are those of the source. No cut-off for these calls is given here.
Experiments:
[1] = biological target: T1, 17-beta-hydroxysteroid dehydrogenase type 1 (Homo sapiens) (UniProt P14061); experiment: Inhibition of human recombinant 17beta-HSD1 at 1 uM by cell-free assay; assay type: single protein
T1 sequence (whole entry): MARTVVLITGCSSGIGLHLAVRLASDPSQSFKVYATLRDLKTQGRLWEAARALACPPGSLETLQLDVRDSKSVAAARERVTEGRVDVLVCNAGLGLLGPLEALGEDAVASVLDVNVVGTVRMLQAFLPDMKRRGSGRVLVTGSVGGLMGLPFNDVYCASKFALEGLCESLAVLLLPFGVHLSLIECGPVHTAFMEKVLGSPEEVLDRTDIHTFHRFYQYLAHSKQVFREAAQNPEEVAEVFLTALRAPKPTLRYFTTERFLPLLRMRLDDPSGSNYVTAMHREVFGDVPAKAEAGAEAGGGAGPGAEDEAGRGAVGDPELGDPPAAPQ

[2] = biological target: T1, 17-beta-hydroxysteroid dehydrogenase type 1 (Homo sapiens); experiment: Inhibition of human recombinant 17beta-HSD1 expressed in human MCF7 cells at 0.1 uM by cell-based assay
[3] = biological target: T1, 17-beta-hydroxysteroid dehydrogenase type 1 (Homo sapiens); experiment: Inhibition of human recombinant 17beta-HSD1 expressed in human MCF7 cells at 1 uM by cell-based assay
[4] = biological target: T2, 17-beta-hydroxysteroid dehydrogenase type 2 (Homo sapiens) (UniProt P37059); experiment: Inhibition of human recombinant 17beta-HSD2 at 0.1 uM by cell-free assay
T2 sequence (whole entry): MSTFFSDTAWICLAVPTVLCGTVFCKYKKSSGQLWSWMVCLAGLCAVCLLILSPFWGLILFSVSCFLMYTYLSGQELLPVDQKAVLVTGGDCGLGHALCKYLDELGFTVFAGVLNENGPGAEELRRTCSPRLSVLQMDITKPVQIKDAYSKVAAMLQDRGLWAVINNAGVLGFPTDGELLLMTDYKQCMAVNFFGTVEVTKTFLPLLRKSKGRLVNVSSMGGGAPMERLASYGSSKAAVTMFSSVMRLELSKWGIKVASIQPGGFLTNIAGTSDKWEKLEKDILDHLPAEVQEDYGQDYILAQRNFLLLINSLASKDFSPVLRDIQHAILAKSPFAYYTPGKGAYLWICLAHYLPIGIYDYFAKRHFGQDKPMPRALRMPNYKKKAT

[5] = biological target: T2, 17-beta-hydroxysteroid dehydrogenase type 2 (Homo sapiens); experiment: Inhibition of human recombinant 17beta-HSD2 at 1 uM by cell-free assay
[6] = biological target: T1, 17-beta-hydroxysteroid dehydrogenase type 1 (Homo sapiens); experiment: Inhibition of human recombinant 17beta-HSD1 at 0.1 uM by cell-free assay; assay type: single protein
[7] = biological target: T3, Estrogen receptor (Homo sapiens, UniProt P03372); experiment: Activity at human recombinant ERalpha by fluorescence polarization assay
T3 sequence (P03372 whole entry): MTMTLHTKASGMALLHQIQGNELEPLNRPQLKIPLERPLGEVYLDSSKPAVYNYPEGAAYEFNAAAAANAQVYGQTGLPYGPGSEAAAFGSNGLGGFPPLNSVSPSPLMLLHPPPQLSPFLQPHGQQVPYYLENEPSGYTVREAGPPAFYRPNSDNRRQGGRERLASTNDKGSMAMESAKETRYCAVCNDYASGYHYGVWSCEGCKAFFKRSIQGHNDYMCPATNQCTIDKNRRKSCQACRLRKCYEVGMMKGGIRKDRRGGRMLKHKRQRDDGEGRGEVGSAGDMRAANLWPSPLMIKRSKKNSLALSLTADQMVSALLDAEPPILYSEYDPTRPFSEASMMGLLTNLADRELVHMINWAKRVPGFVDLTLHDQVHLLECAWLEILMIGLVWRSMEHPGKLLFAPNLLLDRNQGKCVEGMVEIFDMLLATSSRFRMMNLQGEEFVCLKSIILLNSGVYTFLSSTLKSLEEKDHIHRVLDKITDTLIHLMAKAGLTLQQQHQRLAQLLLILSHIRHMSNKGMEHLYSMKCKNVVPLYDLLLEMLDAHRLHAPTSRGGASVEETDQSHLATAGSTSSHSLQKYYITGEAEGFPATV

[8] = biological target: Estrogen receptor beta (Homo sapiens, UniProt Q92731); experiment: Activity at human recombinant ERbeta by fluorescence polarization assay
Estrogen receptor beta, sequence (Q92731 whole entry): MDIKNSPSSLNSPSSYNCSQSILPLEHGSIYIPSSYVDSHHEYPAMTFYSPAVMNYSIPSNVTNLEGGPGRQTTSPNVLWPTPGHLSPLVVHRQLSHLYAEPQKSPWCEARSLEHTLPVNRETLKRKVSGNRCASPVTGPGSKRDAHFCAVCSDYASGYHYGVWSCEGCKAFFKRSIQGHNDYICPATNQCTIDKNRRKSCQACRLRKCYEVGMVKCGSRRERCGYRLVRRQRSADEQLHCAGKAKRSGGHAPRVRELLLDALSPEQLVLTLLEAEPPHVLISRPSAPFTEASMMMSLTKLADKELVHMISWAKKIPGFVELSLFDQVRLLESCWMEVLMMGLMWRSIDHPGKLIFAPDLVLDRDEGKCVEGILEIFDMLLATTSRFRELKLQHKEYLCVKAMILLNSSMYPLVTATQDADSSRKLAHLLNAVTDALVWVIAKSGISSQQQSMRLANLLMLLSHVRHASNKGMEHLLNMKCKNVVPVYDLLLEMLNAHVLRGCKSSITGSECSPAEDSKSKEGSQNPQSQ

| Compound | inhibition [1] [%] | inhibition [2] [%] | inhibition [3] [%] | inhibition [4] | inhibition [5] | inhibition [6] | EC50 [7] [µM] | EC50 [8] [nM] |
| --- | --- | --- | --- | --- | --- | --- | --- | --- |
| O=CC1=C(SCCC(=O)O)c2sc3nc4n(c(=O)c3c2CC1)CCCCC4 | 2.8 | – | – | – | – | 0.3% | – | – |
| CCSC1=C(C=O)CCc2c1sc1nc3n(c(=O)c21)CCCCC3 | 94.5 | 66.1 | 100 | inactive | 2% | 71.3% | – | – |
| CCCSC1=C(C=O)CCc2c1sc1nc3n(c(=O)c21)CCCCCC3 | 74.7 | 15.6 | 57 | 31.4% | 36.9% | 63.3% | > 1 | > 1000 |
| O=c1c2c3c(sc2nc2n1CCCCC2)C(Cl)=C(/C=N/O)CC3 | 17.9 | 14 | 15.1 | – | – | 4.1% | – | – |
| O=c1c2c3c(sc2nc2n1CCCCC2)CCCC3 | 23.2 | 10 | 45.9 | – | – | 8% | – | – |
| CC(C)(C)SC1=C(C=O)CCc2c1sc1nc3n(c(=O)c21)CCCCC3 | 89.6 | 33.6 | 87 | inactive | 1.2% | 49.8% | > 10 | > 1000 |
| O=CC1=C(SC2CCCC2)c2sc3nc4n(c(=O)c3c2CC1)CCCCC4 | 87.4 | 40.3 | 80.5 | inactive | inactive | 46.6% | > 10 | > 1000 |
| CCCSC1=C(/C=N/O)CCc2c1sc1nc3n(c(=O)c21)CCCCC3 | 2.9 | – | – | 19.7% | 41.1% | 0.1% | – | – |
| CCCSC1=C(C=O)CCc2c1sc1nc3n(c(=O)c21)CCC3 | 67.2 | – | – | – | – | 16.7% | – | – |
| O=CC1=C(Sc2cccc(O)c2)c2sc3nc4n(c(=O)c3c2CC1)CCCCC4 | 96.5 | 52.6 | 84.1 | 40.9% | 48.1% | 94.2% | > 1 | > 1000 |
| O=CC1=C(Sc2ccc(O)cc2)c2sc3nc4n(c(=O)c3c2CC1)CCCCC4 | 1.8 | 36.5 | 76.8 | 21.7% | 22.6% | 58.5% | – | – |
| O=CC1=C(SCc2ccccc2)c2sc3nc4n(c(=O)c3c2CC1)CCCCC4 | 30.7 | – | – | 25.8% | 62.2% | 7.2% | – | – |
| CCCSc1c(C=O)ccc2c1sc1nc3n(c(=O)c12)CCCCC3 | 90.6 | 28.5 | 86.4 | 3.8% | 12.7% | 83% | – | – |
| O=CC1=C(Sc2ccncc2)c2sc3nc4n(c(=O)c3c2CC1)CCCCC4 | 87.2 | – | – | 10.5% | 13.7% | 79.2% | – | – |
| CCCCSC1=C(C=O)CCc2c1sc1nc3n(c(=O)c21)CCCCC3 | 93.4 | 54.1 | 100 | inactive | 7.8% | 67.6% | – | – |
| O=CC1=C(Sc2ccc(C(=O)O)cc2)c2sc3nc4n(c(=O)c3c2CC1)CCCCC4 | 22.1 | – | – | – | – | 3.8% | – | – |
| Cc1ccc(SC2=C(C=O)CCc3c2sc2nc4n(c(=O)c32)CCCCC4)cc1 | 80.6 | 18.9 | 69.4 | 8.2% | 32.1% | 47% | – | – |
| O=CC1=C(Cl)c2sc3nc4n(c(=O)c3c2CC1)CCC4 | 26.1 | 19.7 | 38.6 | – | – | 3.3% | – | – |
| O=CC1=C(Sc2ccccc2)c2sc3nc4n(c(=O)c3c2CC1)CCCCC4 | 85.1 | – | – | – | – | 63.3% | > 10 | > 10000 |

The next lines start with the values.

| inhibition [1] [%] | inhibition [2] [%] | inhibition [3] [%] | inhibition [4] | inhibition [5] | inhibition [6] | EC50 [7] [µM] | EC50 [8] [nM] | Compound |
| --- | --- | --- | --- | --- | --- | --- | --- | --- |
| 85.9 | 35.6 | 78.6 | 13.6% | 20.6% | 69% | – | – | CCCSc1c(CO)ccc2c1sc1nc3n(c(=O)c12)CCCCC3 |
| 87 | 43.9 | 100 | inactive | inactive | 35.2% | – | – | CCCSC1=C(C=O)CCCc2c1sc1nc3n(c(=O)c21)CCCCC3 |
| 91.9 | 17.3 | 27.4 | 17% | 27.4% | 87.4% | – | – | O=CC1=C(Sc2ccc(F)cc2)c2sc3nc4n(c(=O)c3c2CC1)CCCCC4 |
| 87.5 | 30.5 | 46.9 | 30.8% | 37.3% | 80.5% | – | – | O=c1c2c(nc3n1CCCCC3)sc1c(Sc3ccccc3)c(CO)ccc12 |
| 92.9 | 71.9 | 100 | inactive | inactive | 64.7% | – | – | CC(C)SC1=C(C=O)CCc2c1sc1nc3n(c(=O)c21)CCCCC3 |
| 89.8 | 24.6 | 71.6 | 8.6% | 53% | 89% | – | – | COc1ccc(SC2=C(C=O)CCc3c2sc2nc4n(c(=O)c32)CCCCC4)cc1 |
| 7.8 | 3.9 | 39.4 | 3.9% | 3.1% | 4% | – | – | O=CC1=C(SCC(=O)N2CCOCC2)c2sc3nc4n(c(=O)c3c2CC1)CCCCC4 |
| 55.8 | 19.5 | 48.2 | 12.9% | 17.4% | 24.3% | – | – | CCCSC1=C(C=O)CCc2c1sc1ncn(C)c(=O)c21 |
| 39.9 | 25.9 | 36.2 | – | – | 14.5% | – | – | O=c1c2c3c(sc2nc2n1CCCCC2)C(Cl)=C(CO)CC3 |
| 3.8 | 6.3 | 35.8 | – | – | inactive | – | – | O=C1CCCc2c1sc1nc3n(c(=O)c21)CCCC3 |
| 91.3 | 18.2 | 90.1 | 32.6% | 71.6% | 85.6% | – | – | O=CC1=C(Sc2ccccc2O)c2sc3nc4n(c(=O)c3c2CC1)CCCCC4 |
| 82.2 | 32.7 | 63.9 | inactive | inactive | 51.2% | > 10 | > 1000 | O=CC1=C(SC2CCCCC2)c2sc3nc4n(c(=O)c3c2CC1)CCCCC4 |
| 13.9 | 8.4 | 8.9 | – | – | 1.1% | – | – | CCCSC1=C(/C=C/C(C)=O)CCc2c1sc1nc3n(c(=O)c21)CCCCC3 |
| – | – | – | – | – | – | > 10 | – | O=CC1=C(Cl)c2sc3nc4n(c(=O)c3c2CCC1)CCCCC4 |
| 88.4 | 15.1 | 87.9 | inactive | inactive | 26.9% | > 1 | > 1000 | O=Cc1ccc2c(sc3nc4n(c(=O)c32)CCCCC4)c1Sc1ccccc1 |
| 95.2 | 74 | 100 | inactive | 5.3% | 72.9% | > 1 | > 1000 | CCCSC1=C(C=O)CCc2c1sc1nc3n(c(=O)c21)CCCCC3 |
| 64 | – | – | 19% | 40.1% | 55.2% | – | – | O=CC1=C(Sc2ccc3ccccc3c2)c2sc3nc4n(c(=O)c3c2CC1)CCCCC4 |

From ChEMBL document CHEMBL1154617, “Synthesis and biological evaluation of 17beta-hydroxysteroid dehydrogenase type 1 (17beta-HSD1) inhibitors based on a thieno[2,3-d]pyrimidin-4(3H)-one core” (J Med Chem, 2009)
